Test [1] has as its system DU-145. The experiment in a line: Antiproliferative activity against human DU-145 cells assessed as inhibition of cell proliferation. The class given is functional, cell-based.
Test [2] deals with HCT-15. The experiment in a line: Antiproliferative activity against human HCT-15 cells assessed as inhibition of cell proliferation. Format: functional, cell-based.
For test [3], the target named is DNA topoisomerase 2-alpha (Homo sapiens) (UniProt P11388). The experiment in a line: Inhibition of topoisomerase 2alpha (unknown origin) assessed as relaxation of supercoiled plasmid pBR322 DNA at 100 uM relative to control.
Test [4] relates to T47D. The experiment in a line: Antiproliferative activity against human T47D cells assessed as inhibition of cell proliferation. Format: functional, cell-based.
Test [5] has as its system HeLa. The experiment in a line: Antiproliferative activity against human HeLa cells assessed as inhibition of cell proliferation. The class given is functional, cell-based.
The target of test [6] is DNA topoisomerase 2-alpha (Homo sapiens) (UniProt P11388). Kind of test: Inhibition of topoisomerase 2alpha (unknown origin) assessed as relaxation of supercoiled plasmid pBR322 DNA at 20 uM relative to control.

In ChEMBL document CHEMBL5131481, “Topoisomerase IIα inhibitory and antiproliferative activity of dihydroxylated 2,6-diphenyl-4-fluorophenylpyridines: Design, synthesis, and structure-activity relationships” (Bioorg Med Chem Lett, 2022) one finds IC50 and inhibition data, which are given here for 19 compounds.

The pIC50 is the negative decadic logarithm of the IC50, by convention in mol/L. As usually defined, the inhibition is the relative decrease from the control value, in per cent.

pIC50: −log10 of the molar value. A value given as a limit tells only on which side of the number the result lay.

Chain of DNA topoisomerase 2-alpha (Homo sapiens) (P11388 whole entry): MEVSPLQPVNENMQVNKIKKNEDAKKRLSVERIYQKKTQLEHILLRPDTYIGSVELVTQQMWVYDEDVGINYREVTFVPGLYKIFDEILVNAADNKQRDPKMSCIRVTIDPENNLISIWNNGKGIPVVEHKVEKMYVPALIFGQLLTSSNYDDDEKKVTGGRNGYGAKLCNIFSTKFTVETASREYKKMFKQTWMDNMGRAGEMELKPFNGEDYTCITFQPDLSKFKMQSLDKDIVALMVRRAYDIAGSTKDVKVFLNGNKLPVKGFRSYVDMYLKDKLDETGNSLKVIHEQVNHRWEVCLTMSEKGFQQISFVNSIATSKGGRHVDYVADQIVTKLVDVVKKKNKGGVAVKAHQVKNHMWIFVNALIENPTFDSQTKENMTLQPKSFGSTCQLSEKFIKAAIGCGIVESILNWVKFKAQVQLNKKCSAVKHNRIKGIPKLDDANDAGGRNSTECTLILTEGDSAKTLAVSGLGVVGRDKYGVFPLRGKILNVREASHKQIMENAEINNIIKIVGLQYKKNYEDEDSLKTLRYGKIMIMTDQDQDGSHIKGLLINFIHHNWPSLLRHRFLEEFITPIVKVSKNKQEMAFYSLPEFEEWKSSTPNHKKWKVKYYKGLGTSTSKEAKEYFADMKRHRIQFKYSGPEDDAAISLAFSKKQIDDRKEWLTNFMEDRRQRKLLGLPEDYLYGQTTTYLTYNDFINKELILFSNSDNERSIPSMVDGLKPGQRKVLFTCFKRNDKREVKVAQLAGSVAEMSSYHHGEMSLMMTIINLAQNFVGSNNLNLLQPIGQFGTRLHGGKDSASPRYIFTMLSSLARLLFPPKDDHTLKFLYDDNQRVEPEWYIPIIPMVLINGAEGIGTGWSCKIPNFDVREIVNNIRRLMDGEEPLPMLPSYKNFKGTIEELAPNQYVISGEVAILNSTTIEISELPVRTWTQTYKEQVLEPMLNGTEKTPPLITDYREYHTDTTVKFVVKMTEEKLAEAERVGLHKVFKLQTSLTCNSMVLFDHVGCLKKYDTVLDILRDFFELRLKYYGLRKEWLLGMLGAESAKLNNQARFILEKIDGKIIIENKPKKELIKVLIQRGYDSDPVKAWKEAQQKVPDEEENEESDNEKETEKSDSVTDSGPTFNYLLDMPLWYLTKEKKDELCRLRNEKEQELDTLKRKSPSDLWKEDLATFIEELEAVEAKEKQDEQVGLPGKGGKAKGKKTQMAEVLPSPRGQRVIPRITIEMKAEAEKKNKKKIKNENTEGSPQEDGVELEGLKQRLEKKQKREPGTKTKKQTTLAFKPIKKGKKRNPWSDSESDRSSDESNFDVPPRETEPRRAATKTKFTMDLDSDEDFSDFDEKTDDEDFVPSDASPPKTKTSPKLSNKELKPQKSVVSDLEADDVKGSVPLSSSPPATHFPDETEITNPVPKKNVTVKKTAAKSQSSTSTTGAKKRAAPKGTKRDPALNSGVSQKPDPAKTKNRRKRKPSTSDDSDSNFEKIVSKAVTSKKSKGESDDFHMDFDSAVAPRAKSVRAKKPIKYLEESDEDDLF

Regarding `Oc1ccc(-c2cc(-c3cccc(F)c3)cc(-c3cccc(O)c3)n2)cc1`, the negative logarithm of the IC50 (pIC50) is 5.57 in test [1], 5.51 in test [2], 5.45 in test [4] and 4.85 in test [5]. Moreover, the inhibition is 73.9% in test [3] and 36.1% in test [6].
For the compound `Oc1ccc(-c2cc(-c3ccc(F)cc3)cc(-c3cccc(O)c3)n2)cc1`, the negative-log IC50 (pIC50) in test [1] is 4.82; in test [2] it was 5.30; in test [4] it was 5.30; in test [5] it was 5.09. Moreover, the inhibition in test [3] stood at 43.7%; in test [6] it was 30.4%.
Take `COc1cc([C@@H]2c3cc4c(cc3[C@@H](O[C@@H]3O[C@@H]5CO[C@@H](C)O[C@H]5[C@H](O)[C@H]3O)[C@H]3COC(=O)[C@H]23)OCO4)cc(OC)c1O` [ETOPOSIDE]: the negative logarithm of the IC50 (pIC50) in test [1] was 5.13; in test [4], 5.24; in test [5] it was 5.15. In addition, in test [6], the inhibition amounted to 21.2%.
Turning to `Oc1ccc(-c2cc(-c3ccc(F)cc3)cc(-c3ccc(O)cc3)n2)cc1`, the pIC50 is 5.22 in test [1], 5.30 in test [2], 5.28 in test [4] and 5.06 in test [5]. The inhibition in test [3] came out at 97.1%; in test [6], 42.5%.
Turning to `Oc1cccc(-c2cc(-c3ccccc3F)cc(-c3cccc(O)c3)n2)c1`, the negative-log IC50 (pIC50) in test [1] was 4.95; in test [2], 5.28; in test [4], 5.36; in test [5], 4.79. For the same compound, the values for the inhibition in test [3] and in test [6] were 31.1% and 10.8%, respectively.
With `Oc1cccc(-c2cc(-c3ccccc3OC(F)(F)F)cc(-c3cccc(O)c3)n2)c1`, the negative-log IC50 (pIC50) in test [1] is 5.27; in test [2], 5.37; in test [4], 5.10; in test [5] it was 4.78. Besides, the values for the inhibition in test [3] and in test [6] were 33.4% and 6.7%, respectively.
For the compound `Oc1ccc(-c2cc(-c3ccccc3F)cc(-c3cccc(O)c3)n2)cc1`, the pIC50 in test [1] was 5.50; in test [2] it was 5.25; in test [4], 5.20; in test [5], 4.85. For the same compound, the inhibition in test [3] turned out to be 76.6%; in test [6], 42.1%.
With `Oc1ccc(-c2cc(-c3ccc(C(F)(F)F)cc3)cc(-c3cccc(O)c3)n2)cc1`, the negative logarithm of the IC50 (pIC50) in test [1] is under 4.30; in test [2], 5.19; in test [4] it was 5.54; in test [5], 4.76. For the same compound, the results for the inhibition in test [3] and in test [6] were 44.1% and 4.1%, respectively.
Regarding `Oc1ccc(-c2cc(-c3ccccc3C(F)(F)F)cc(-c3cccc(O)c3)n2)cc1`, the negative logarithm of the IC50 (pIC50) in test [1] is 5.56; in test [2], 5.24; in test [4], 5.49; in test [5], 4.76. Besides, the inhibition stood at 61.9% in test [3] and 2.2% in test [6].
For the compound `Oc1cccc(-c2cc(-c3ccc(F)cc3)cc(-c3cccc(O)c3)n2)c1`, the negative-log IC50 (pIC50) is 5.15 in test [1], 5.20 in test [2], 5.16 in test [4] and 5.89 in test [5]. For the same compound, the inhibition is 36.6% in test [3] and 4.9% in test [6].
`Oc1ccc(-c2cc(-c3ccccc3OC(F)(F)F)cc(-c3cccc(O)c3)n2)cc1`: the pIC50 in test [1] is 5.11; in test [2], 5.64; in test [4] it was 5.14; in test [5] it was 5.24. In addition, the results for the inhibition in test [3] and in test [6] were 45.2% and 4.4%, respectively.
For `Oc1cccc(-c2cc(-c3ccccc3C(F)(F)F)cc(-c3cccc(O)c3)n2)c1`, the pIC50 in test [1] is 5.54; in test [2], 5.09; in test [4], 5.36; in test [5], 4.82. For the same compound, the inhibition in test [3] is 34%.
As to `Oc1ccc(-c2cc(-c3cccc(C(F)(F)F)c3)cc(-c3cccc(O)c3)n2)cc1`, the pIC50 is 4.96 in test [1], 5.02 in test [2], 5.58 in test [4] and 4.79 in test [5]. The inhibition in test [3] came out at 28%.
For the compound `Oc1ccc(-c2cc(-c3cccc(OC(F)(F)F)c3)cc(-c3cccc(O)c3)n2)cc1`, the negative logarithm of the IC50 (pIC50) is 5.25 in test [1], 5.76 in test [2], 5.30 in test [4] and 4.85 in test [5]. The inhibition in test [3] was 43.4%; in test [6], 7.4%.
As to `Oc1cccc(-c2cc(-c3ccccc3C(F)(F)F)cc(-c3ccccc3O)n2)c1`, the pIC50 in test [1] is 5.14; in test [2], 5.05; in test [4] it was 5.25; in test [5], 4.77. Also, the inhibition in test [3] stood at 2.6%.
With `Oc1ccc(-c2cc(-c3ccccc3OC(F)(F)F)cc(-c3ccc(O)cc3)n2)cc1`, the pIC50 was 4.80 in test [1], 5.11 in test [2], 5.01 in test [4] and 4.35 in test [5]. The inhibition in test [3] amounted to 42.2%; in test [6] it was 4.3%.
`Oc1ccccc1-c1cc(-c2ccccc2C(F)(F)F)cc(-c2ccccc2O)n1`: the pIC50 in test [1] was 5.32; in test [2], 5.40; in test [4], 4.65; in test [5], 5.24. Also, the inhibition in test [3] was determined as 0%.
`Oc1cccc(-c2cc(-c3cccc(C(F)(F)F)c3)cc(-c3cccc(O)c3)n2)c1`: the pIC50 in test [1] is under 4.30; in test [2] it was 4.87; in test [4] it was 5.30; in test [5], 4.90. Further, the inhibition in test [3] was found to be 25.2%.
With `Oc1ccc(-c2cc(-c3ccc(OC(F)(F)F)cc3)cc(-c3ccc(O)cc3)n2)cc1`, the pIC50 in test [1] is 5.27; in test [2] it was 4.86; in test [4] it was 5.29; in test [5], 4.77. The inhibition in test [3] amounted to 59%; in test [6] it was 6.4%.
